Data as given in patent publication US6376510B1, “Neuromuscular relaxants” (Newlaxant LLC, priority 1997, dated 2002).
Where two headings read alike, the source gives them in different places.

Legend:
[1] = test system: anesthetized juvenile pigs; experiment: animal or person; assay type: in vivo; conditions: pig; for ED50: intravenous dose causing 50% neuromuscular block; for RI (recovery index): spontaneous recovery, 25-75% neuromuscular response; for Onset: time to 80-85% neuromuscular block
Text: (§1) Both electromyographic and mechanomyographic responses can be quantified.
(§2) The techniques described under a) and b) were employed in other species as needed with the modification that juvenile pigs were initially anesthetized with inhalation of halothane (Table 5) and monkeys were initially sedated with intramuscular ketamine injections prior to inducing and maintaining general anesthesia using pentobarbital and propofol administered intravenously (Table 6).

[2] = test system: anesthetized rats (evoked responses of anterior tibial muscle); experiment: In vivo neuromuscular block and cardiovascular side effects, anesthetized rat (Example 8, Table 3); conditions: for Onset: time to 80-85% neuromuscular block
Text: The neuromuscular blocking activity and other effects (e.g. cardiovascular side effects) of selected agents were investigated on several different experimental animals. Justification for this approach lies in the commonly known fact that the pharmacodynamic and pharmacokinetic properties of these agents are markedly variable from species to species. Therefore, the most important aspects of the projected therapeutic utility of these agents, e.g., neuromuscular blocking potency, onset and duration of action, and side effects cannot be ascertained in “in vitro” preparations or by using only one species of animals.
(§3) a) Adult, male albino rats were anesthetized with pentobarbital injected intraperitoneally. The trachea was cannulated for artificial respiration via a small animal respirator. The carotid artery was cannulated for recording blood pressure via a transducer and heart rate by a cardiotachograph on a polygraph. One external jugular vein was cannulated for i.v. drug administration. Neuromuscular function was monitored by electromyography, recording evoked responses from the anterior tibial muscle as a result of supramaximal nerve stimuli consisting of single or “train-of-four” rectangular pulses of 0.1-0.2 msec duration every 10-12 seconds, delivered to the sciatic or common peroneal nerve by a laboratory nerve stimulator. Another mode of stimulation included repeated single stimuli delivered at 0.1 Hz or 1 Hz. […] The agents were dissolved in physiologic saline and injected intravenously at appropriate time intervals. The intensity, onset, and duration of neuromuscular block and its type were determined with each agent. Through administering several doses, the doses corresponding to 50%, 80% and 90% neuromuscular block were determined. All agents were compared with selected standard neuromuscular blocking compounds, e.g. succinylcholine, pancuronium, mivacurium, or rocuronium.
(§4) Onset=time in minutes to 80-85% neuromuscular block.
(§5) RI=recovery index, minutes, spontaneous recovery, 25-75% neuromuscular response.
(§6) VB=vagal block, %, at 80-85% neuromuscular blocking dose.
(§7) ΔHR=change in heart rate, %, at 80-85% neuromuscular blocking dose.
(§8) ΔBP=change in arterial blood pressure, %, at 80-85% neuromuscular blocking dose.

rabbits = experiment: In vivo neuromuscular block and cardiovascular side effects, rabbit (Example 8, Table 7); conditions: for ED50: intravenous dose causing 50% neuromuscular block; for RI (recovery index): spontaneous recovery, 25-75% neuromuscular response; for Onset: time to 80-85% neuromuscular block
anesthetized monkeys = experiment: In vivo neuromuscular block and cardiovascular side effects, monkey (Example 8, Table 6); conditions: for ED50: intravenous dose causing 50% neuromuscular block; for RI (recovery index): spontaneous recovery, 25-75% neuromuscular response; for Onset: time to 80-85% neuromuscular block
Text: as §1, §2

[3] = test system: anesthetized cats (evoked responses of anterior tibial muscle); experiment: animal or person; conditions: for RI (recovery index): spontaneous recovery, 25-75% neuromuscular response; for Onset: time to 80-85% neuromuscular block
Text: as §3, §4, §5, §6, §7, §8
b) Adult cats were anesthetized with a mixture of 70 mg/kg alpha chloralose and 0.5 g/kg ethylurethane intraperitoneally. One thigh was fixed in a vertical position by means of a pin at the lower end of the femur. Needle electrodes were placed on the sciatic or the common peroneal nerve. A tendon of the anterior tibial muscle was attached to a force transducer and the muscle responses evoked, as described under a), were recorded. Both electromyographic and mechanomyographic responses can be quantified. Blood pressure and heart rate changes were recorded from appropriately cannulated arteries via a blood pressure transducer and cardiotachograph.

[4] = rat, intravenous dose causing 50% neuromuscular block
[5] = rat, spontaneous recovery, 25-75% neuromuscular response
[6] = cat, intravenous dose causing 50% neuromuscular block
[7] = cat, at 80-85% neuromuscular blocking dose
[8] = rat, at 80-85% neuromuscular blocking dose
[9] = Oryctolagus cuniculus, read-out: ED50
[10] = at 80-85% neuromuscular blocking dose

CC(=O)Oc1ccc(C[N+]2(C)C3CCCC2CC(OC(=O)CCCCC(=O)OC2CC4CCCC(C2)[N+]4(C)Cc2ccc(OC(C)=O)c(OC(C)=O)c2)C3)cc1OC(C)=O.[Br-].[Br-] (stereo not shown) [bis[N-(3,4-diacetoxybenzyl)granataninium-3-yl]adipate dibromide]
VB (vagal block) ([1]; in vivo): 51% | ΔBP (change in arterial blood pressure) ([1]; in vivo): 0% | ΔH (change in heart rate) ([1]; in vivo): 0% | ED50 [1]: 0.14 mg/kg | RI (recovery index) [1]: 0.9 min | Onset [1]: 0.7 min | VB (vagal block) ([2]; rat, in vivo): 5% | ΔBP (change in arterial blood pressure) ([2]; rat, in vivo): 0% | ΔH (change in heart rate) ([2]; rat, in vivo): 0% | ED50 [2, 4]: 0.14 mg/kg | RI (recovery index) [2, 5]: 0.4 min | Onset ([2]; rat): 0.5 min | ΔBP (change in arterial blood pressure) (rabbits; in vivo): 0% | ΔH (change in heart rate) (rabbits; in vivo): 0% | ED50 (rabbits): 0.167 mg/kg | RI (recovery index) (rabbits): 0.5 min | Onset (rabbits): 0.68 min | ΔBP (change in arterial blood pressure) (anesthetized monkeys; in vivo): 0% | ΔH (change in heart rate) (anesthetized monkeys; in vivo): 0% | ED50 (anesthetized monkeys): 0.085 mg/kg | RI (recovery index) (anesthetized monkeys): 0.4 min | Onset (anesthetized monkeys): 0.8 min | ED50 [3, 6]: 0.4 mg/kg | RI (recovery index) ([3]; cat): 0.5 min | Onset ([3]; cat): 0.7 min | VB (vagal block) ([3]; in vivo): 70% | ΔBP (change in arterial blood pressure) ([3]; in vivo): −40% | ΔH (change in heart rate) ([3]; in vivo): 0%

C[N+]1(CC2CC2)[C@@H]2CC[C@H]1C[C@@H](OC(=O)CCCCCCC(=O)O[C@H]1C[C@H]3CC[C@@H](C1)[N+]3(C)CC1CC1)C2.[Br-].[Br-] (stereo partly drawn) [bis[N-(cyclopropylmethyl)tropanium-3α-yl]suberate dibromide, reference compound]
ED50 ([3]; Felis catus, iv): 0.155 mg/kg | VB (vagal block) [3, 7]: 80% | ΔBP (change in arterial blood pressure) [3, 7]: 0% | ΔH (change in heart rate) [3, 7]: 0% | RI (recovery index) ([3]; cat): 9 min | Onset ([3]; cat): 1.4 min

CC(=O)Oc1ccc(C[N+]2(C)C3CCC2CC(OC(=O)C2C4C=CC(C4)C2C(=O)OC2CC4CCC(C2)[N+]4(C)Cc2ccc(OC(C)=O)c(OC(C)=O)c2)C3)cc1OC(C)=O.[Br-].[Br-] (stereo not drawn) [bis[N-(3,4-diacetoxybenzyl)tropanium-3α-yl]trans-3,6-endomet] [bis[N-(3,4-diacetoxybenzyl)tropanium-3α-yl]trans-3,6-endomethylene-1,2,3,6-tetrahydrophthalate dibromide]
VB (vagal block) ([1]; in vivo): 42% | ΔBP (change in arterial blood pressure) ([1]; in vivo): 0% | ΔH (change in heart rate) ([1]; in vivo): 0% | ED50 [1]: 0.197 mg/kg | RI (recovery index) [1]: 0.9 min | Onset [1]: 0.65 min | VB (vagal block) [2, 8]: 32% | ΔBP (change in arterial blood pressure) [2, 8]: 0% | ΔH (change in heart rate) [2, 8]: 0% | ED50 [2, 4]: 0.084 mg/kg | RI (recovery index) [2, 5]: 0.5 min | Onset ([2]; rat): 0.65 min | ΔBP (change in arterial blood pressure) (rabbits; in vivo): 0% | ΔH (change in heart rate) (rabbits; in vivo): 0% | ED50 (rabbits): 0.096 mg/kg | RI (recovery index) (rabbits): 0.7 min | Onset (rabbits): 0.8 min | ΔBP (change in arterial blood pressure) (anesthetized monkeys; in vivo): 0% | ΔH (change in heart rate) (anesthetized monkeys; in vivo): 0% | ED50 (anesthetized monkeys): 0.06 mg/kg | RI (recovery index) (anesthetized monkeys): 0.65 min | Onset (anesthetized monkeys): 0.8 min | ED50 [3, 6]: 0.12 mg/kg | RI (recovery index) ([3]; cat): 0.5 min | Onset ([3]; cat): 0.9 min | VB (vagal block) ([3]; in vivo): 30% | ΔBP (change in arterial blood pressure) ([3]; in vivo): −30% | ΔH (change in heart rate) ([3]; in vivo): −12%

COc1ccc(CC2c3cc(OC)c(OC)cc3CC[N+]2(C)CCC(=O)OCCCCCOC(=O)CC[N+]2(C)CCc3cc(OC)c(OC)cc3C2Cc2ccc(OC)c(OC)c2)cc1OC (stereo not shown) [Atracurium, reference compound]
ED50 ([2]; Rattus norvegicus, iv): 0.32 mg/kg | VB (vagal block) ([2]; male, rat, in vivo): 0% | ΔBP (change in arterial blood pressure) ([2]; male, rat, in vivo): 0% | ΔH (change in heart rate) ([2]; male, rat, in vivo): 0% | RI (recovery index) ([2]; rat, in vivo): 2.9 min | Onset ([2]; rat): 1.5 min | ED50 (rabbits; [9]): 0.03 mg/kg | ΔBP (change in arterial blood pressure) (rabbits; [10]): 0% | ΔH (change in heart rate) (rabbits; [10]): 0% | RI (recovery index) (rabbits): 5.7 min | Onset (rabbits): 2.7 min | ED50 (anesthetized monkeys; Primates, read-out: ED50): 0.186 mg/kg | ΔBP (change in arterial blood pressure) (anesthetized monkeys; [10]): 0% | ΔH (change in heart rate) (anesthetized monkeys; [10]): 0% | RI (recovery index) (anesthetized monkeys): 7.5 min | Onset (anesthetized monkeys): 3 min | ED50 ([3]; Felis catus, iv): 0.068 mg/kg | ΔBP (change in arterial blood pressure) ([3]; cat, in vivo): 0% | ΔH (change in heart rate) ([3]; cat, in vivo): 0% | RI (recovery index) ([3]; cat): 4.8 min | Onset ([3]; cat): 2.7 min

CC(=O)Oc1ccc(C[N+]2(C)C3CCCC2CC(OC(=O)CCCCCC(=O)OC2CC4CCCC(C2)[N+]4(C)Cc2ccc(OC(C)=O)c(OC(C)=O)c2)C3)cc1OC(C)=O.[Br-].[Br-] (stereo not shown) [bis[N-(3,4-diacetoxybenzyl)granataninium-3-yl]pimelate dibromide]
VB (vagal block) ([1]; in vivo): 48% | ΔBP (change in arterial blood pressure) ([1]; in vivo): 0% | ΔH (change in heart rate) ([1]; in vivo): 0% | ED50 [1]: 0.193 mg/kg | RI (recovery index) [1]: 1 min | Onset [1]: 0.7 min | VB (vagal block) ([2]; rat, in vivo): 0% | ΔBP (change in arterial blood pressure) ([2]; rat, in vivo): 0% | ΔH (change in heart rate) ([2]; rat, in vivo): 0% | ED50 [2, 4]: 0.175 mg/kg | RI (recovery index) [2, 5]: 0.4 min | Onset ([2]; rat): 0.45 min | ΔBP (change in arterial blood pressure) (rabbits; in vivo): 0% | ΔH (change in heart rate) (rabbits; in vivo): 0% | ED50 (rabbits): 0.266 mg/kg | RI (recovery index) (rabbits): 0.6 min | Onset (rabbits): 0.72 min | ΔBP (change in arterial blood pressure) (anesthetized monkeys; in vivo): 0% | ΔH (change in heart rate) (anesthetized monkeys; in vivo): 0% | ED50 (anesthetized monkeys): 0.15 mg/kg | RI (recovery index) (anesthetized monkeys): 0.55 min | Onset (anesthetized monkeys): 1.2 min

C[N+]1(C)[C@@H]2CC[C@H]1C[C@@H](OC(=O)CCCCCCCCC(=O)O[C@H]1C[C@H]3CC[C@@H](C1)[N+]3(C)C)C2.[I-].[I-] [bis[N-methyltropanium-3α-yl]sebacate diiodide, reference compound]
ED50 ([3]; Felis catus, iv): 0.125 mg/kg | VB (vagal block) [3, 7]: 100% | ΔBP (change in arterial blood pressure) [3, 7]: 0% | ΔH (change in heart rate) [3, 7]: 0% | RI (recovery index) ([3]; cat): 3.9 min | Onset ([3]; cat): 2.3 min

CCC(=O)Oc1ccc(C[N+]2(C)C3CCCC2CC(OC(=O)CCCCCC(=O)OC2CC4CCCC(C2)[N+]4(C)Cc2ccc(OC(=O)CC)c(OC(=O)CC)c2)C3)cc1OC(=O)CC.[Br-].[Br-] (stereo not shown) [bis[N-(3,4-dipropionyloxybenzyl)granataninium-3-yl]pimelate dibromide]
VB (vagal block) ([1]; in vivo): 30% | ΔBP (change in arterial blood pressure) ([1]; in vivo): 0% | ΔH (change in heart rate) ([1]; in vivo): 0% | ED50 [1]: 0.7 mg/kg | RI (recovery index) [1]: 0.5 min | Onset [1]: 0.5 min | VB (vagal block) ([2]; rat, in vivo): 2% | ΔBP (change in arterial blood pressure) ([2]; rat, in vivo): −6% | ΔH (change in heart rate) ([2]; rat, in vivo): −3% | ED50 [2, 4]: 0.45 mg/kg | RI (recovery index) [2, 5]: 0.35 min | Onset ([2]; rat): 0.5 min | ΔBP (change in arterial blood pressure) (rabbits; in vivo): 0% | ΔH (change in heart rate) (rabbits; in vivo): 0% | ED50 (rabbits): 0.5 mg/kg | RI (recovery index) (rabbits): 0.4 min | Onset (rabbits): 0.45 min

COc1cc(C[N+]2(C)[C@@H]3CC[C@H]2C[C@@H](OC(=O)CCCCCCCCCC(=O)O[C@H]2C[C@H]4CC[C@@H](C2)[N+]4(C)Cc2cc(OC)c(OC)c(OC)c2)C3)cc(OC)c1OC.[Br-].[Br-] (stereo partly drawn) [bis[N-(3,4,5-trimethoxybenzyl)tropanium-3α-yl]1,9-nonanedicarboxylate dibromide]
ED50 ([1]; Sus scrofa, read-out: ED50): 0.31 mg/kg | VB (vagal block) [1, 10]: 40% | ΔBP (change in arterial blood pressure) [1, 10]: 0% | ΔH (change in heart rate) [1, 10]: 0% | RI (recovery index) [1]: 2.4 min | Onset [1]: 1.5 min | ED50 ([2]; Rattus norvegicus, iv): 0.18 mg/kg | VB (vagal block) [2, 8]: 10% | ΔBP (change in arterial blood pressure) [2, 8]: 0% | ΔH (change in heart rate) [2, 8]: 0% | RI (recovery index) [2, 5]: 1.8 min | Onset ([2]; rat): 0.8 min | ED50 (rabbits; [9]): 0.07 mg/kg | ΔBP (change in arterial blood pressure) (rabbits; [10]): 0% | ΔH (change in heart rate) (rabbits; [10]): 0% | RI (recovery index) (rabbits): 2.5 min | Onset (rabbits): 1.3 min
